Source: publication PMC3997483, “Aminostyrylbenzofuran Directly Reduces Oligomeric Amyloid-β and Reverses Cognitive Deficits in Alzheimer Transgenic Mice” (PLoS ONE, 2014)

Key:
[1] = Metabolic stability in liver microsomes; assay type: in vitro ADME; conditions: dog liver microsomes
APP/PS1 TG mice [2] = test: Y-maze, prophylactic trial; assay type: in vivo, mouse; conditions: 5 to 12 months of age
APP/PS1 TG mice [3] = test: Contextual fear conditioning, therapeutic trial; assay type: in vivo, mouse; conditions: PO 30 mg/kg/day, 3 months, TG 20.0%
Procedure: Behavioral tests were performed in the following sequence: Y-maze (day 1), Morris water maze (day 4 to 12) and contextual fear conditioning (day 26 to 27). To reduce stress, contextual fear conditioning was carried out 2 weeks after the Morris water maze task. In the therapeutic trial, APP/PS1 TG mice were treated with KMS88009 (30 mg/kg/day) for 3 months from 9 to 12 months of age. Y-maze tests short-term spatial working memory. Y-maze is a 3-armed (40 L×10 W×12 H cm) horizontal maze in which the arms are symmetrically disposed at 120° angles from each other. Mice were placed at the end of one arm and allowed to move freely through the maze during a 5-min session. Arm entry was considered completed when the hind paws of the mouse were completely placed in the arm. Alternation was defined as successive entries into the 3 arms on overlapping triplet sets. The series of arm entries was recorded via video recorders. […] During each trial session, the time taken to find the hidden platform (latency) was recorded using a video camera-based Ethovision System (Nodulus, Nertherlands). […] Swimming time was recorded during mice were in the pool quadrant where the platform had been previously located. […] Fear conditioning task was measured to test the ability to learn and remember an association between an aversive experience and environmental cues. […] Freezing response was measured without CS or US. […]

Aβ40 and Aβ42 = test: Aβ40/Aβ42 sandwich ELISA of hippocampus, therapeutic trial; assay type: in vivo, mouse; conditions: 30 mg/kg/day, 3 months
Procedure: Mice subjected to behavior tests were sacrificed and levels of Aβ in their brains were analyzed. After removing olfactory lobe and cerebellum of brain, hippocampus and cerebral cortex were separated. The separated regions were Dounce-homogenized first in 10-fold mass of a lysis buffer (RIPA, 150 mM NaCl, 1% NP-40, 0.5% deoxycholic acid, 0.1% SDS and 50 mM tris, pH 8.0) or tris buffer (50 mM tris and pH 8.0) containing protease inhibitor cocktail (Pierce, USA) for prophylactic or therapeutic treatment groups, respectively. The homogenates were then centrifuged at 16,000 g for 20 min at 4°C. The supernatant (soluble Aβ fraction) was collected and stored at −70°C until analyzed. The resulting pellet was solubilized in 20-fold mass of cold guanidine solution (5 M guanidine HCl, 50 mM tris HCl and pH 8.0) at room temperature for 4 hr followed by dilution with cold Dulbecco's phosphate buffered saline (PBS) with 5% BSA and 0.03% tween-20. The diluent was centrifuged at 16,000 g for 20 min at 4°C to obtain the insoluble Aβ fraction. The tissue concentrations of Aβ40 and Aβ42 in the soluble and insoluble fraction were measured using Aβ-detecting sandwich enzyme-linked immunosorbent assay (ELISA) kit (BioSource, USA). The levels of soluble Aβ oligomers were measured by a dot-blot immunoassay with an anti-oligomer antibody and an anti-Aβ antibody on soluble fraction of hippocampus homogenates. The homogenate sample (3 µL) was spotted onto nitrocellulose membrane (Whatman, UK). After blocking with 5% BSA in tris-buffered saline (TBS) for 1 hr at room temperature, the membrane was incubated with rabbit anti-oligomer polyclonal antibody (A11; 1∶1,000; Millipore, USA) overnight at 4°C, followed by incubation with HRP-secondary anti-rabbit antibody (1∶5,000; Millipore, USA) for 1 hr at room temperature. Blots were developed using ECL reagents (PerkinElmer, USA). […] The density of dots was analyzed with Multi Gauge program (Fuji Film, Japan) and the data was normalized to the average density of the TG control group. […]

## COc1ccc2cc(C=Cc3ccc(N(C)C)cc3)oc2c1 [KMS88009, 6-methoxy-2-(4-dimethylaminostyryl) benzofuran]
[1]
  half-life at 5 µM: 21.3 ± 0.8 min
[1]; read-out: Remaining % of parent molecule at 60 min.
  remaining at 1 h, 5 µM: 14.8 ± 0.2%
APP/PS1 TG mice [2]; PO 10 mg/kg/day
  frequency of spontaneous alternation (Y-maze): 69.3%
APP/PS1 TG mice [2]; PO 30 mg/kg/day
  frequency of spontaneous alternation (Y-maze): 68.5%
APP/PS1 TG mice [2]; PO 100 mg/kg/day
  frequency of spontaneous alternation (Y-maze): 70.2%
APP/PS1 TG mice [3]
  freezing response (contextual fear conditioning): 48.3%
Aβ40 and Aβ42
  decrease of insoluble Aβ42 level vs TG littermates: 50.9%
Aβ40 and Aβ42; not statistically significant
  decrease of insoluble Aβ40 level vs TG mice: 44.9%
  decrease of soluble Aβ40 level vs TG mice: 19.4%
